# How the values were obtained:
# Karpas-422 cells [1] = assay: RNA-seq gene expression analysis; assay type: cell-based, human; conditions: 24 h
# Protocol: RNA samples obtained from three independent treatments were subjected to RiboZero stranded sequencing using the Illumina Hiseq2000 sequencer. RNA-seq data from ACY-957-treated samples was compared to the publically available RNA seq data set from Karpas-422 cells following GSK126 treatment of Karpas-422 cells. […] Genes with adjusted p-value<0.05 and absolute log 2 fold change>0.585 were used in this analysis.
# Total RNA was isolated from Karpas cells that were treated with DMSO or 2 μM ACY-957 for 24 h using the Versagene RNA isolation kit (5 Prime). The treatments were done in triplicate and sequenced using the Illumina Hiseq2000 sequencer. Illumina TruSeq Stranded sequencing following RiboZero treatment was performed.
# Three independent DMSO or ACY-957 treatments of Karpas-422 cells for 24 h were performed for total RNA isolation, which was then subjected to RNA-seq involving next-generation sequencing and bioinformatics analysis.
# [2] = system: SUDHL4 and Karpas-422 cells; assay: γH2AX foci formation by immunofluorescence; assay type: cell-based, human
# Protocol: The percentage of cells with 6 or greater γH2AX foci were counted in three independent experiments and at least 100 cells were counted in each experiment. […] Histones were purified using trichloroacetic acid extraction protocol (see Example 1). Western blot analysis was done with anti-γH2AX and histone H2AX served as the loading control. […] Following DMSO or ACY957 treatment, cells were exposed to a 5Gy dose of ionizing radiation and allowed to recover for 30 minutes prior to chromatin extraction. Western blot analysis was done with anti-γH2AX where total histone H2AX served as a loading control. (D): Karpas-422 cells were micro-irradiated with laser and allowed to recover for 15 minutes before fixation and immunofluorescence staining with anti-γH2AX, anti-HDAC1 and anti-HDAC2 antibodies was done.
# (§1) Immunofluorescence. Cells were fixed in either 10% formalin or methanol-acetone (1:1) for 10 min at −20*C. The cells were then permeabilized with 0.5% Triton-X-100 in PBS for 5 min at room temperature (RT), blocked in 10% normal goat serum (Sigma) for 30 min and stained with primary antibody for 1 h at RT. Cells were incubated with secondary antibody (anti-mouse or anti-rabbit IgG, Alexa Fluor 488/546) at a 1:600 dilution for 45 min at RT, and counterstained with Hoechst 33342 (Sigma) at 1:1000 dilution to visualize the nuclei. Images were captured using Zeiss Axioskop mot plus microscope with a 40× lens and analyzed using the AxioVision software.
# Karpas-422 cells [3] = assay: 53BP1 and γH2AX foci formation after doxorubicin; assay type: cell-based, human; conditions: 24 h pretreatment
# Protocol: After 4 h or 8 h of doxorubicin treatment, cells were fixed and immunofluorescence staining was performed with anti-γH2AX and anti-53BP1 antibodies. Cells shown were representative images based on the quantitation. Merge was the overlay of γH2AX and 53BP1 pictures. (B) and (C): Graphs depicted the percentage of cells with 53BP1 foci present at γH2AX containing break sites and the percentages of cells with γH2AX foci.
# as §1
# To test this possibility, we treated DLBCL cells with DMSO or ACY957 for 24 h prior to a low dose of doxorubicin (50 nM) treatment. We examined γH2AX and 53BP1 foci formation at 4 h or 8 h post-doxorubicin treatment using immunofluorescence.
# The percentage of cells containing 0, 1-5, 6-10 and greater than 10 γH2AX and 53BP1 foci were determined in at least 100 cells from three independent experiments.
# Hdac1,2 = assay: in vitro enzyme assays, IC50 determination (FIG. 17A); assay type: biochemical
# Protocol: (A). For IC50 determination, recombinant HDAC enzymes were treated with HDAC1,2 or HDAC3 inhibitors in in vitro HDAC assays. (B). Western blots for H3K23ac using extracts from Pre-B-ALL SupB15 cells treated with increasing dose of HDAC1,2 inhibitor (ACY1035). (C). Hdac1^FI/FI, 2^FI/FI cells were infected with Ad-Cre virus to delete HDAC1 and HDAC2 (HDAC1,2 null) or uninfected (WT). (D). Hdac3^FI/FI cells were either uninfected (WT) or infected with Ad-Cre virus to delete Hdac3. HDAC3-null cells were treated with DMSO or the HDAC1,2 selective inhibitor.
# We have determined 2 μM (FIG. 17B) as the minimum dose for the ACY compounds, respectively, that when added to cells increased H3K23ac (a mark targeted by Hdac1,2 but not Hdac3).
# [4] = system: Karpas-422 and SUDHL4 cells; assay: Western blot of histone acetylation marks in whole cell lysates; conditions: vs DMSO
# Protocol: Compounds were diluted in DMSO to 50 fold the final concentration and a ten point three fold dilution series was made. The compounds were diluted in assay buffer (50 mM HEPES, pH 7.4, 100 mM KCl, 0.001% Tween-20, 0.05% BSA, 20 μM tris(2-carboxyethyl)phosphine) to 6 fold their final concentration. The HDAC enzymes (purchased from BPS Biosciences) were diluted to 1.5 fold their final concentration in assay buffer. The tripeptide substrate (synthesized in house) and trypsin at 0.05 μM final concentration were diluted in assay buffer at 6 fold their final concentration. Five μl compounds and 20 μl of enzyme were added to wells of a black, opaque 384 well plate in duplicate. Enzyme and compound were incubated together at room temperature for 10 minutes. Five μl of substrate was added to each well, the plate was shaken for 60 seconds and placed into a Victor 2 microtiter plate reader. The development of fluorescence was monitored for 60 min and the linear rate of the reaction was calculated. The IC50 was determined using Graph Pad Prism by a four parameter curve fit.
compound,measurement,setting,value
"Nc1ccc(-c2cccs2)cc1NC(=O)c1ccc2nc(N3CCNCC3)ccc2c1 [ACY-957, N-(2-amino-5-(thiophen-2-yl)phenyl)-2-(piperazin-1-yl)quinoline-6-carboxamide]",number of genes up regulated,"Karpas-422 cells [1]; 2 μM, vs DMSO",492 genes
same,BLIMP1 expression up regulation,Karpas-422 cells [1]; DESeq analysis of RNA-seq,1.7 fold
same,cells with γH2AX foci,"[2]; 48 h, 2 μM ACY-957, 0.5 μM DZNEP, 0.5 μM GSK126",significant increase in the number of cells with greater than six γH2AX foci
same,γH2AX foci by immunofluorescence,[2]; EZH2GOF DLBCL cells,increase in γH2AX
same,53BP1 foci co-localizing with γH2AX foci,Karpas-422 cells [3]; 4 h post-doxorubicin (50 nM),decrease in the number of 53BP1 foci
same,percentage of cells with 53BP1 foci,Karpas-422 cells [3]; 8 h doxorubicin,increased to the level that was observed in the control DMSO-treated cells
same,percentage of cells with γH2AX foci,Karpas-422 cells [3]; 8 h doxorubicin,even higher percentage of cells with 6-10 and greater than 10 γH2AX foci
same,"inhibition of Hdac1,2 activities compared to Hdac3 (IC50 values)","Hdac1,2",very selectively
same,H3K23ac levels,"[4]; 2 μM, 24 hours",increased H3K23ac levels
same,"H3K9,K14ac and H4K5ac levels","[4]; increasing amounts, 24 hr",concentration-dependent increase

# Reference: patent US11154551B2, “HDAC1,2 inhibitors and methods of using the same” (UNIVERSITY OF UTAH RESEARCH FOUNDATION, priority 2014, dated 2021)
